Results reported in the NIST ThermoML archive (doi:10.1016/j.jct.2009.10.007).

Assay: mn = molality of the nth substance listed, in mol/kg
Settings: 101 kPa, Liquid; for speed of sound: Sing-around technique in a fixed-path interferometer; for mass density: Vibrating tube method

CCCCn1cc[n+](C)c1.[Br-] [1-butyl-3-methylimidazolium bromide] + O
Settings | mass density, 288.15 K [kg/m3] | mass density, 293.15 K [kg/m3] | mass density, 298.15 K [kg/m3] | speed of sound, 288.15 K [m/s] | speed of sound, 293.15 K [m/s] | speed of sound, 298.15 K [m/s]
m1 = 0.0183 | 1000.03 | 999.121 | 997.948 | 1468.7 | 1484.7 | 1498.8
m1 = 0.0274 | 1000.49 | 999.575 | 998.397 | 1469.8 | 1485.7 | 1499.6
m1 = 0.0367 | 1000.96 | 1000.04 | 998.851 | 1471 | 1486.7 | 1500.5
m1 = 0.0459 | 1001.42 | 1000.49 | 999.303 | 1472 | 1487.7 | 1501.5
m1 = 0.0692 | 1002.59 | 1001.64 | 1000.44 | 1474.8 | 1490.2 | 1503.7
m1 = 0.0932 | 1003.78 | 1002.82 | 1001.6 | 1477.3 | 1492.5 | 1505.9
m1 = 0.1164 | 1004.92 | 1003.94 | 1002.71 | 1480 | 1495 | 1508.1
m1 = 0.141 | 1006.13 | 1005.13 | – | 1483 | 1497.6 | 1510.5
m1 = 0.1652 | 1007.3 | 1006.29 | – | 1485.6 | 1500.1 | 1512.7
m1 = 0.1863 | 1008.32 | 1007.29 | – | 1488 | 1502.2 | 1514.7
m1 = 0.2114 | 1009.53 | 1008.48 | – | 1490.8 | 1504.8 | 1517
m1 = 0.2376 | 1010.77 | 1009.71 | – | 1493.6 | 1507.3 | 1519.3
m1 = 0.2632 | 1011.99 | 1010.91 | – | 1496.4 | 1509.8 | 1521.7
m1 = 0.2831 | 1012.92 | 1011.83 | – | 1498.5 | 1511.8 | 1523.4
